Where two headings read alike, the source gives them in different places.
Experiments:
Cholesterin-Biosynthese = assay: Inhibition of cholesterol biosynthesis in cell culture by 14C precursor incorporation into cholesterol; assay type: cell-based; conditions: HEP G2-Zellen monolayers in lipoprotein-free medium; 1 h preincubation, then 3 h with 14C-Natriumacetat; potency relative to Mevinolin tested in the same way
Source text: 2) Prüfung auf Cholesterin-Biosynthese-Hemmung in Zellkulturen durch ¹⁴-Präkursoreinbau in Cholesterin.
Monolayers von HEP G2-Zellen in lipoproteinfreiem Nährmedium wurden mit entsprechenden Konzentrationen der Prüfsubstanzen 1 Stunde vorinkubiert; nach Zugabe des ¹⁴C-markierten Präkursors ¹⁴C-Natriumacetat wurde die Inkubation für 3 Stunden fortgesetzt. Danach wurde ein Teil der Zellen alkalisch verseift bei vorheriger Zugabe eines internen Standards von ³H-Cholesterin. Die Lipide der verseiften Zellen wurden mit Chloroform-Methanol extrahiert. Dieses Lipidgemisch wurde nach Zusatz von Träger-Cholesterin präparativ dünnschichtchromatographisch getrennt, die Cholesterin-Bande nach dem Sichtbarmachen mit Jod-Dämpfen isoliert und die aus dem ¹⁴C-Präkursor gebildete Menge ¹⁴C-Cholesterins szintigraphisch bestimmt. In einem aliquoten Teil der Zellen wurde Zellprotein bestimmt, sodaß die in der Zeiteinheit/mg Zellprotein aus ¹⁴C-Präkursor gebildete Menge ¹⁴C-Cholesterins berechnet werden kann. Zum Vergleich für die Hemmwirkung eines zugesetzten Prüfpräparates diente die Lösungsmittelkontrolle, sodaß direkt die Hemmung der Cholesterin-Biosynthese bei einer bestimmten molaren Konzentration des Prüfpräparates im Medium angegeben werden kann. […]

[1] = rat; cited from earlier work
[2] = human trial; cited from earlier work

| Compound | relative Weinstärke zu Mevinolin (Cholesterin-Biosynthese) | cholesterinsenkende Wirkung [1] | cholesterinsenkende Wirkung [2] |
| --- | --- | --- | --- |
| CC(C)C(C=CC(O)CC(O)CC(=O)[O-])=C(c1ccc(F)cc1)c1ccc(F)cc1.[Na+] (stereo not shown) [Beispiel 11a, 9,9-Di-(4-fluorphenyl)-3,5-dihydroxy-8-isopropyl-6,8-nonadiensäure Natriumsalz] | 100% | – | – |
| CC(C)C(CCC(O)CC(O)CC(=O)[O-])=C(c1ccc(F)cc1)c1ccc(F)cc1.[Na+] (stereo not shown) [Beispiel 11n, 3,5-Dihydroxy-9,9-di-(4-flurophenyl)-8-isopropyl-8-nonensäure-Natriumsalz] | 30% | – | – |
| CC(O)(CC(=O)O)CC(=O)O [3-Hydroxy-3-methyl-glutarsäure] | – | signifikante cholesterinsenkende Wirkung | signifikante cholesterinsenkende Wirkung |
